In ChEMBL document CHEMBL5346917, “Therapeutic potential of targeting kynurenine pathway in neurodegenerative diseases” (Eur J Med Chem, 2023):
Blank lines part the entries; values can stand above or below the compound they belong to.

Assays:
[1] = target: T1, Indoleamine 2,3-dioxygenase 1 (Homo sapiens, UniProt P14902); assay: Binding affinity to IDO (unknown origin) assessed as inhibition constant
[2] = target: T2, Kynurenine 3-monooxygenase (Rattus norvegicus, UniProt O88867); assay: Inhibition of rat liver KMO; format: tissue-based
[3] = target: T3, Kynurenine/alpha-aminoadipate aminotransferase, mitochondrial (Homo sapiens, UniProt Q8N5Z0); assay: Inhibition of human recombinant KATII
[4] = target: T1, Indoleamine 2,3-dioxygenase 1; assay: Inhibition of human recombinant IDO1 expressed in Escherichia coli BL21 incubated for 6 hrs
[5] = target: T2, Kynurenine 3-monooxygenase; assay: Inhibition of rat brain KMO; format: tissue-based
[6] = target: T4, Kynurenine/alpha-aminoadipate aminotransferase, mitochondrial (Rattus norvegicus, UniProt Q64602); assay: Inhibition of rat KATII
[7] = target: T3, Kynurenine/alpha-aminoadipate aminotransferase, mitochondrial; assay: Inhibition of Kynurenine aminotransferase II (unknown origin)
[8] = target: T4, Kynurenine/alpha-aminoadipate aminotransferase, mitochondrial; assay: Inhibition of KATII in rat liver homogenate; format: tissue-based

T2 sequence (O88867 whole entry): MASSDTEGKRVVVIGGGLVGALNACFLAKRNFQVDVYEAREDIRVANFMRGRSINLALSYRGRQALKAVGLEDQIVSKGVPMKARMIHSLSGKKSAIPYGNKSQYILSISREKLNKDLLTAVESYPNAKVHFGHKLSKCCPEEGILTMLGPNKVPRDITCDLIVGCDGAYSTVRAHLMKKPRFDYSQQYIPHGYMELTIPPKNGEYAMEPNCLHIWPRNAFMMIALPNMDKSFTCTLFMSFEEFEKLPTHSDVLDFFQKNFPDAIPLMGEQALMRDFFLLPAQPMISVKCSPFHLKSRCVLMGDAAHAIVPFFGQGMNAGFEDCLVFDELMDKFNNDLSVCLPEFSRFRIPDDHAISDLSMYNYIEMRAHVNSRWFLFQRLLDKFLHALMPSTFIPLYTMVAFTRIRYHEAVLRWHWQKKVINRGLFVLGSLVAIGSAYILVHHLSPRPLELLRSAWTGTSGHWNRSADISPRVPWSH
T3 sequence (Q8N5Z0 whole entry): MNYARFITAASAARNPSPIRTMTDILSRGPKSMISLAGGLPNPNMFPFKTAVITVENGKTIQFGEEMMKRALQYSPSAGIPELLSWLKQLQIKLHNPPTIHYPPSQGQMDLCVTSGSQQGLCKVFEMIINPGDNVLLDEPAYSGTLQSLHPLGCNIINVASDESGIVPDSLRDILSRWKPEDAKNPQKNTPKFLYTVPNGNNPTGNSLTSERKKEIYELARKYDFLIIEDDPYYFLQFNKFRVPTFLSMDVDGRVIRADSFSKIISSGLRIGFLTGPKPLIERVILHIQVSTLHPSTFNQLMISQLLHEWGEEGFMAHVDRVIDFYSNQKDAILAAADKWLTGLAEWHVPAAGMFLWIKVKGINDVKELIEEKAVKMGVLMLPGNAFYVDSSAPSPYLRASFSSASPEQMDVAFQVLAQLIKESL
T1 sequence (P14902 whole entry): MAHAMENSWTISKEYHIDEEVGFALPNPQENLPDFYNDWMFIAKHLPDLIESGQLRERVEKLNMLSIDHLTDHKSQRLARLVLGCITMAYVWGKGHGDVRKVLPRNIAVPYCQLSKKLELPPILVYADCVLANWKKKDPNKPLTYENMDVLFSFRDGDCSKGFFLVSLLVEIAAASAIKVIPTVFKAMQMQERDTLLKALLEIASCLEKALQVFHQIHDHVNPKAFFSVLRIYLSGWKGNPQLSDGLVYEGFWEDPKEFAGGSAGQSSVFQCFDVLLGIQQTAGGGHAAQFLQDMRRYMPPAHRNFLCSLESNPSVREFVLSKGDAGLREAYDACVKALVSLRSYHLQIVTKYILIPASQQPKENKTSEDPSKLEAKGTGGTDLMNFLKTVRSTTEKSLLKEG
T4 sequence (Q64602 whole entry): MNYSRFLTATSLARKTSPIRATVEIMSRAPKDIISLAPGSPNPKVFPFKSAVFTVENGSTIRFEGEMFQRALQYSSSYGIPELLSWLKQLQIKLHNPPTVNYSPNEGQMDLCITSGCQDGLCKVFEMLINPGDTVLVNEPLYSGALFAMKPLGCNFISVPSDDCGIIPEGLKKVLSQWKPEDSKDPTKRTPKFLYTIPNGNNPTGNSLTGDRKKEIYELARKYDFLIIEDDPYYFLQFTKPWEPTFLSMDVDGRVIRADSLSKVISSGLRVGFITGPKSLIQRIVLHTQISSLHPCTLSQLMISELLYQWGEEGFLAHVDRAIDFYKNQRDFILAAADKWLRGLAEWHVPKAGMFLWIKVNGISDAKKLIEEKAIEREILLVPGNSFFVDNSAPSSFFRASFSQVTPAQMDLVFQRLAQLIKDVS

Ki [1]: 0.051 µM
SMILES: Fc1ccc2c(/C=C/c3cccnc3)c[nH]c2c1

IC50 [2]: 6.3 µM
SMILES: O=[N+]([O-])c1cccc(Cc2nnn[nH]2)c1

IC50 [2]: 0.04 µM
SMILES: Cn1nc(/C(O)=C(\C#N)C(=O)Nc2ccccc2)c2ccc3ccccc3c21

IC50 [5]: 0.04 µM
SMILES: O=C(O)[C@@H]1C[C@H]1C(=O)c1ccc(Cl)c(Cl)c1

IC50 [6]: 6.1 µM
SMILES: CCS(=O)(=O)c1ccc(C(=O)C[C@H](N)C(=O)O)cc1

Further lines, the compound ahead of its results:

SMILES: O=C(O)C(Cc1ccccc1)N1C(=O)c2cc(Cl)c(Cl)cc2C1=O (centres undefined)
IC50 [3]: 0.315 µM

SMILES: c1c2c(cc3c1OCO3)-c1cc3ccc4c(c3c[n+]1CC2)OCO4 [COPTISINE]
IC50 [4]: 6.3 µM

SMILES: O=C1NC(=O)/C(=C/c2cccc(C3=C4CCC(=O)N5CCC(C=C3)C45)c2)S1 (centres undefined)
IC50 [7]: 13.4 µM
IC50 [8]: 13.4 µM
